The series in a line: physchem. The conditions noted are these: octan-1-ol/water.

A word on the logD: it is lipophilicity at a set pH, counting ionised and neutral species. A higher logD goes with higher lipophilicity. Where the note is “pH 7.4, LogD7.4”, `C#CCN(c1ccnc(Nc2ccc(OCC(O)CN(C)C)cc2)n1)c1cc(Cl)ccc1Cl` (stereo not drawn) showed a logD of 3.2. Still for that read-out and setting: as for `N#Cc1ccc(OCC(=O)O)c(-c2ccccc2)c1`, the figure is -1.08; as for `O=C(O)CCCS(=O)(=O)c1cccc(C(=O)N2CCC(N3CCC(Oc4ccc(Cl)c(Cl)c4)CC3)CC2)c1`, 0.66; as for `O=c1c(-c2ccc([N+](=O)[O-])cc2)coc2cc(O)cc(O)c12`, 3.24. The compound `c1ccc2ncccc2c1` [QUINOLINE] came in with a pH-dependent lipophilicity (logD) (pH 7.4) of 2.09. On the same count and under the same terms, as for `O=C(NCC1CCOCC1)c1nc(OS(=O)(=O)CCC(F)(F)F)ccc1NC(=O)c1ccc(Cn2ccnn2)c2ccccc12`, the figure is 4.2. On to `CC(C)Cn1c(=O)n(C)c(=O)c2c(C(=O)N3CCCC3)c(Cc3ccccc3C(F)(F)F)sc21`, for which the logD (pH 7.4, LogD7.4) is 3.8.

`COc1cc2nnc(C(N)=O)c(Nc3cccc(Cl)c3F)c2cc1N1CCN(C)CC1` had a logD (pH 7.4, LogD7.4) of 2.35.

`FC(F)(F)c1nnc2ccc(N3CCCCC3)nn12`: the logD (pH 7.4, LogD7.4) came to 3. On the same count and under the same terms, as for `CC(C)c1ncc(NC(=O)OCc2ccccc2)c(=O)n1CC(=O)NC(C(=O)C(F)(F)F)C(C)C` (stereo not drawn), the figure is 2.63. Take `COc1ccc(OC)c(-c2c(F)ccc3c(N)c(C(=O)NC4CC4)nnc23)c1`: the logD (pH 7.4, LogD7.4) was 3.47.

Turning to `O=C(Nc1ccc(Nc2ccc(NC(=O)c3ccccc3)c3c2C(=O)c2ccccc2C3=O)c2c1C(=O)c1ccccc1C2=O)c1ccccc1`, the logD (pH 7.4, LogD7.4) stood at 2.63. The compound `Nc1ncnc2ccccc12` [4-AMINOQUINAZOLINE] registered a logD (pH 7.4, LogD7.4) of 1.26. Still for that read-out and setting: then `CCCC(=O)C1(c2ccccc2)CCN(C(=O)[C@@H](Cc2ccc(OC)cc2)NC(=O)[C@@H](N)Cc2cncn2C)CC1`, with 2.51; and `COC(=O)c1ccc(NC(=O)c2cc(OC)c(OC)c(OC)c2)cc1`, with 3.2; and `COCCN1CCN(CC(=O)Nc2ccc(-c3cccn4c(=O)cc(N5CCOCC5)nc34)c3sc4ccccc4c23)CC1`, with 3.2. Still for that read-out and setting: then `O=C1C(=O)c2cccc([N+](=O)[O-])c2-c2ccccc21`, with 2.6.

Regarding `CC1(C(=O)NC2CCCCC2)CCC(=O)N1Cc1cccs1` (stereo not drawn), the log distribution coefficient (logD) (pH 7.4, LogD7.4) amounted to 2.15. Still for that read-out and setting: as for `COCCOc1cc2nccc(Nc3cc(O)c(Cl)cc3F)c2cc1OC`, the figure is 2.64; as for `CN[C@@H](C)C(=O)N[C@H](C(=O)N[C@H]1CCCN(CCc2cccc(OC)c2)C1)C(C)(C)C`, 1.47; as for `CCNCc1cncc(-c2ccc(F)cc2OC)n1`, 1.18. The compound `CCCN[C@H]1CCc2nc(N)sc2C1` [PRAMIPEXOLE] gave a logD (pH 7.4, LogD7.4) of 3.15.

As to `CC(C)Cn1c(=O)n(C)c(=O)c2c(C(=O)N3C[C@H](O)CO3)c(Cc3ccccc3C(F)(F)F)sc21`, the logD (pH 7.4, LogD7.4) was 3.15. On the same count and under the same terms, then `CCN1CCN(CC(=O)Nc2ccc(-c3cccc4c(=O)cc(N5CCOCC5)oc34)c3sc4ccccc4c23)CC1`, with 3.05; and `CSc1ncccc1C(=O)NCC1CCCCC1`, with 2.93. Still for that read-out and setting: as for `COC[C@@H](c1ccc(C(F)(F)F)cc1)N1CCN(C2(C)CCN(C(=O)c3c(C)ncnc3C)CC2)C[C@@H]1C` [VICRIVIROC], the figure is 2.7; as for `O=C(c1cc(Cc2n[nH]c(=O)c3ccccc23)ccc1F)N1CCN(C(=O)C2CCCO2)CC1` (stereo not drawn), 0.9.

As for `CCCc1c(OCCCSc2ccc(CC(=O)O)cc2Cl)ccc(C(=O)CC)c1O`, the logD (pH 7.4, LogD7.4) stood at 3.57.

In turn, `CN1CCN(C(=O)c2ccc(C(=C3CCN(Cc4cscn4)CC3)c3cccc4cccnc34)cc2)CC1` came in with a logD (pH 7.4) of 1.98. Take `Nc1ccc2ncccc2c1`: the logD (pH 7.4, LogD7.4) amounted to 1.33. Consider `Clc1ccc(C2=CSC3=NCCN23)cc1Cl`, for which the logD (pH 7.4, LogD7.4) was determined as 1.54. `O=C(O)Cc1ccc(-c2ccc(NC(=O)c3nnc(Nc4ccccc4F)o3)cc2)cc1` displayed a logD (pH 7.4, LogD7.4) of 1.5. Still for that read-out and setting: as for `O=c1oc2ccccc2cc1-c1ccccc1`, the figure is 3.22; as for `CC1(c2ccc(Cl)cc2)CCN(C(=O)COCc2ccncc2)CC1`, 2.79; as for `Cc1ccc(Cl)c(Nc2cc(Nc3ccc(OCC(O)CN(C)C)cc3)ncn2)c1` (stereo not drawn), 2.16. `C=CCn1c(=O)c2c(-c3cc(C#N)cn3C)n(Cc3ccnc4ccc(Cl)cc34)nc2n(CC2CC2)c1=O` gave a logD (pH 7.4, LogD7.4) of 4.27. Still for that read-out and setting: as for `COc1ccccc1-c1coc2cc(O)ccc2c1=O`, the figure is 2.55; as for `Cc1cc2n[nH]c(=O)n2c2cc(-c3cccnc3)ccc12`, 2.72.

Turning to `O=C1c2ccc(O)cc2C(=O)N1c1cccc(O)c1`, the logD (pH 7.4, LogD7.4) stood at 2.

Compound `COc1ccc2c(C)nc(=O)n(CCN3CCC(NCc4cc5c(cn4)OCCO5)CC3)c2c1` came in with a logD (pH 7.4, LogD7.4) of 0.29.

`CCOc1ccc(-c2cnc3n2CCC3)cc1` had a pH-dependent lipophilicity (logD) (pH 7.4, LogD7.4) of 2.65. Where the note is “pH 7.4, LogD7.4”, `Cc1ccc(NC(=O)CCC2CCCCC2)cc1NC(=O)c1ccc(O)cc1` registered a log distribution coefficient (logD) of 4.13.

`CC[C@H](NC(=O)c1c(S(C)(=O)=O)c(-c2ccccc2)nc2ccccc12)c1ccccc1` came in with a logD (pH 7.4, LogD7.4) of 3.17. Turning to `O=C(O)COc1ccc(Cl)cc1C1CCCCC1`, the logD (pH 7.4, LogD7.4) was determined as 0.93.

As for `Nc1c2c(nc3c(-c4ncccn4)cccc13)CN(C1CCC1)C2=O`, the logD (pH 7.4, LogD7.4) is 1.85.

For the setting “pH 7.4, LogD7.4”, `Cc1noc(C)c1CCC1CCN(S(=O)(=O)CC2(N(O)C=O)CCC(F)(F)CC2)CC1` displayed a logD of 2.1. For the setting “pH 7.4, LogD7.4”, `COC(=O)CCCC(=O)Nc1ccc2c(c1)-c1ccccc1C(=O)C2=O` displayed a logD of 2.96. On the same count and under the same terms, as for `COC1/C=C/OC2(C)Oc3c(C)c(O)c4c(c3C2=O)C(=O)C=C(NC(=O)/C(C)=C\C=C\C(C)C(O)C(C)C(O)C(C)C(OC(C)=O)C1C)C4=O` (stereo not drawn), the figure is 0.7; as for `CCN(c1ccccc1)c1cc(NC)[n+](C)c(C)n1`, -0.91; as for `O=C(Nc1ccc(F)cc1)c1cccnc1Oc1ccccc1`, 3.19. Under “pH 7.4, LogD7.4”, `CC(C)(C)c1ccc(-c2n[nH]c(NC(=O)c3ccccc3Cl)c2Br)cc1` came in with a logD of 4.3.

On to `Clc1ccc(-c2cn3ccccc3n2)cc1`, for which the logD (pH 7.4, LogD7.4) amounted to 4. As for `CCn1c(=O)c2c(-c3cncn3C)n(Cc3ccnc4ccc(Cl)cc34)nc2n(CC2CC2)c1=O`, for the setting “pH 7.4, LogD7.4”, the logD was determined as 2.87. The same measure, in the same setting: as for `N[C@@H](Cc1ccc(F)cc1)C(=O)O`, the figure is -1.06; as for `Nc1ccc2c(c1)C(=O)C(=O)c1ccccc1-2`, 2.23. In the case of `Cc1ncccc1Oc1ncnc(OC2C3COCC2CN(C(=O)OC(C)C)C3)c1C` (stereo not drawn), where the note is “pH 7.4, LogD7.4”, the logD was 3.1.

Compound `Cc1ncc(-c2ccnc(Nc3ccc(C(N)=O)c(F)c3)n2)n1C(C)C` gave a logD (pH 7.4, LogD7.4) of 2.8. Take `C[C@@H](NC(=O)[C@H]1CCCNC1)c1ccc(Nc2ncc3cc(-c4ccncc4)ccc3n2)cc1`: the logD (pH 7.4, LogD7.4) was found to be 1.69. Still for that read-out and setting: then `CCN(CC)CC(=O)Nc1c(C#N)cnn1-c1ccccc1`, with 0.4; and `C#CCN(c1cc(Nc2ccc(OCC(O)CN(C)C)cc2)ncn1)c1cc(Cl)ccc1Cl` (stereo not drawn), with 2.8; and `CC(Oc1c(Cl)cccc1Cl)C1=NCCN1` (stereo not drawn) [LOFEXIDINE], with 0.48. The same measure, in the same setting: as for `Cn1sc(NC(=O)c2cccc(Cl)c2)nc1=O`, the figure is 0.87; as for `Cc1ccc(-c2cc(C(F)(F)F)n[nH]2)cc1NC(=O)c1ccc(OCc2ccccn2)cc1`, 2.44; as for `c1ccc2cnccc2c1` [ISOQUINOLINE], 1.6. `O=c1cc(-c2ccc(O)cc2)oc2ccc(O)cc12`: the logD (pH 7.4, LogD7.4) stood at 3.3. Still for that read-out and setting: then `O=S(=O)(Nc1nccs1)c1ccc(O)cc1`, with 0.36. Same read-out and setting: then `CCCCC(O)c1[nH]c2cc(C)c(C(=O)O)cc2c1CCc1ccccc1` (stereo not drawn), with 2.59; and `Cc1cn(C2CCCN(Cc3cccc(Oc4ccc(Cl)cc4)c3)C2)c(=O)[nH]c1=O` (stereo not drawn), with 3.38.

These data come from ChEMBL document CHEMBL3301361, “Experimental in vitro DMPK and physicochemical data on a set of publicly disclosed compounds”.
